The values that follow come from ChEMBL document CHEMBL6177941, “Recent advances from computer-aided drug design to artificial intelligence drug design” (RSC Med Chem, 2024).

One experiment addresses Cannabinoid receptor 2 (Homo sapiens, UniProt P34972). Description: Binding affinity to human CB2 receptor assessed as inhibition constant.
The next experiment addresses T1, Androgen receptor (Homo sapiens, UniProt P10275).
T1 sequence (P10275 whole entry): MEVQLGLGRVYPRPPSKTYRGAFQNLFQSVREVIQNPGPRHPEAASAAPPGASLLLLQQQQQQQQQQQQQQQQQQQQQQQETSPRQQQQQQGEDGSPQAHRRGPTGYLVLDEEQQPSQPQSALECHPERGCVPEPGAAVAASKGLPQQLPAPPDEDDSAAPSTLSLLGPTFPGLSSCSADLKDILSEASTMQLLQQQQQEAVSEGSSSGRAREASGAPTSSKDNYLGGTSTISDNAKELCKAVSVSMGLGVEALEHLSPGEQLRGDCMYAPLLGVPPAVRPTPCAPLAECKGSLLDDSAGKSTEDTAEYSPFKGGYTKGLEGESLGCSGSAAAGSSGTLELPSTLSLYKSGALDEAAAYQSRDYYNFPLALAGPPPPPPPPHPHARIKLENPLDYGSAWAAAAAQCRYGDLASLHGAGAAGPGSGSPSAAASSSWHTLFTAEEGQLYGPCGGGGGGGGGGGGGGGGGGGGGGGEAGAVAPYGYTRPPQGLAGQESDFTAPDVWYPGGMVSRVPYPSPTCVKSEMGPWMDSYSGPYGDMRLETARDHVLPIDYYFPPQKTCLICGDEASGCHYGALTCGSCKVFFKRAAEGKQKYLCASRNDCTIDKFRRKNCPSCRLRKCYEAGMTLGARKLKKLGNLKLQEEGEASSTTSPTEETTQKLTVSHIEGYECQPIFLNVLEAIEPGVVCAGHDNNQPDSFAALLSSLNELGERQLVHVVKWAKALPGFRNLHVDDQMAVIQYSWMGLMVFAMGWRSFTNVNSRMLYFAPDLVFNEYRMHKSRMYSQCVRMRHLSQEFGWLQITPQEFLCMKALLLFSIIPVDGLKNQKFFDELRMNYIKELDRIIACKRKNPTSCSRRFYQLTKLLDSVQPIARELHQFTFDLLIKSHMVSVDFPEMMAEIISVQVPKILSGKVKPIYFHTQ
Description: Inhibition of full length human Androgen receptor DNA binding domain dimerization.

Another experiment relates to VCaP. In words: Antiproliferative activity against human VCaP cells expressing ERG level assessed as reduction in cell viability incubated for 72 hrs by CCK8 assay.
The test system of experiment [1] is Staphylococcus aureus. In words: microbe, parasite or virus in culture. Particulars: ATCC 43300, 24 h.
Description: Antibacterial activity against methicillin-resistant Staphylococcus aureus ATCC 43300 assessed as reduction in bacterial growth incubated for 24 hrs by CLSI protocol based broth micro-dilution method
In experiment [2] the test system is Staphylococcus aureus. Description: microbe, parasite or virus in culture. Particulars: ATCC 35556, 24 h.
Description: Antibacterial activity against wild type Staphylococcus aureus ATCC 35556 assessed as reduction in bacterial growth incubated for 24 hrs by CLSI protocol based broth micro-dilution method
Experiment [3] concerns the target 5-hydroxytryptamine receptor 2A (Homo sapiens, UniProt P28223). In words: Agonist activity at human 5-HT2A receptor expressed in HEK293 cells incubated for 60 mins by BRET assay. Background: In BRET a luciferase serves as donor, and the signal depends on an acceptor being close.
A short description of experiment [4]: Inhibition of Poly-L-Histidine tagged full length recombinant Trypanosoma cruzi Sir2p extracted from Escherichia coli BL21 (DE) using Abz-Gly-Pro-AcetylLys-Ser-Gln-EDDnp peptide as substrate incubated for 30 mins by fluorescence based analysis.
A further experiment addresses Speckle-type POZ protein (Homo sapiens, UniProt O43791).
A further experiment relates to Escherichia coli. In words: Antibacterial activity against Escherichia coli.
The target of experiment [5] is Tyrosine-protein kinase JAK2 (Homo sapiens, UniProt O60674). Description: Inhibition of JAK2 (unknown origin) by Z'-LYTE kinase assay.
Experiment [6] concerns the target Epithelial discoidin domain-containing receptor 1 (Homo sapiens, UniProt Q08345).
Experiment [7] has as its target Rho-associated protein kinase 1 (Homo sapiens, UniProt Q13464).
Description: Binding affinity to N-terminal GST-tagged human ROCK1 catalytic domain (1 to 477 residues) expressed in Sf21 insect cells assessed as inhibition constant by NanoBRET intracellular kinase assay
In another experiment the test system is MOLT-4. Description: Antiproliferative activity against human MOLT-4 cells assessed as reduction in cell growth incubated for 72 hrs by Cell-titer glo luminescent cell viability assay. The following applies: MOLT-4, 72 h.
Another experiment has as its system Acinetobacter baumannii. In words: microbe, parasite or virus in culture. Particulars: ATCC 17978.
Experiment [8] addresses Myeloid differentiation primary response protein MyD88 (Homo sapiens, UniProt Q99836). Description: Binding affinity to MYD88 Toll/interleukin-1 receptor domain (unknown origin) assessed as dissociation constant by SPR assay. A general note: In SPR one partner is held on a chip, and binding of the other changes the refractive index at the surface.
The target of experiment [9] is T2, Serine/threonine-protein kinase Sgk3 (Homo sapiens, UniProt Q96BR1).
T2 sequence (Q96BR1 whole entry): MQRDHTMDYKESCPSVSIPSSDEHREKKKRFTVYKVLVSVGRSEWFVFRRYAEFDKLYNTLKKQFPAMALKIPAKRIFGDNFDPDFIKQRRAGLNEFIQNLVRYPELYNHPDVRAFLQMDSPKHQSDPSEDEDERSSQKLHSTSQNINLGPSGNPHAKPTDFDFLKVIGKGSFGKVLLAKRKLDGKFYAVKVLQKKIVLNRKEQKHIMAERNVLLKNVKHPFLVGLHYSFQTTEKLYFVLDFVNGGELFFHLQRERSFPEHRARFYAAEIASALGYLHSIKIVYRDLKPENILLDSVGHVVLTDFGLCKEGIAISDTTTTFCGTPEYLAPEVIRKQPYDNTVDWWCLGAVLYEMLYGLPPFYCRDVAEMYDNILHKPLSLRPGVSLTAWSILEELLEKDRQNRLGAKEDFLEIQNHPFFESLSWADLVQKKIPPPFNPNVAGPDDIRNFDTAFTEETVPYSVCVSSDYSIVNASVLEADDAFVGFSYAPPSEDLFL
Description: Inhibition of SGK3 (unknown origin).

pEC50, pIC50, pKd, pKi: −log10 of the molar value. In brackets after ≈: the same amount, converted by molar mass.

Epithelial discoidin domain-containing receptor 1, sequence (Q08345 whole entry, the tested form may be a part): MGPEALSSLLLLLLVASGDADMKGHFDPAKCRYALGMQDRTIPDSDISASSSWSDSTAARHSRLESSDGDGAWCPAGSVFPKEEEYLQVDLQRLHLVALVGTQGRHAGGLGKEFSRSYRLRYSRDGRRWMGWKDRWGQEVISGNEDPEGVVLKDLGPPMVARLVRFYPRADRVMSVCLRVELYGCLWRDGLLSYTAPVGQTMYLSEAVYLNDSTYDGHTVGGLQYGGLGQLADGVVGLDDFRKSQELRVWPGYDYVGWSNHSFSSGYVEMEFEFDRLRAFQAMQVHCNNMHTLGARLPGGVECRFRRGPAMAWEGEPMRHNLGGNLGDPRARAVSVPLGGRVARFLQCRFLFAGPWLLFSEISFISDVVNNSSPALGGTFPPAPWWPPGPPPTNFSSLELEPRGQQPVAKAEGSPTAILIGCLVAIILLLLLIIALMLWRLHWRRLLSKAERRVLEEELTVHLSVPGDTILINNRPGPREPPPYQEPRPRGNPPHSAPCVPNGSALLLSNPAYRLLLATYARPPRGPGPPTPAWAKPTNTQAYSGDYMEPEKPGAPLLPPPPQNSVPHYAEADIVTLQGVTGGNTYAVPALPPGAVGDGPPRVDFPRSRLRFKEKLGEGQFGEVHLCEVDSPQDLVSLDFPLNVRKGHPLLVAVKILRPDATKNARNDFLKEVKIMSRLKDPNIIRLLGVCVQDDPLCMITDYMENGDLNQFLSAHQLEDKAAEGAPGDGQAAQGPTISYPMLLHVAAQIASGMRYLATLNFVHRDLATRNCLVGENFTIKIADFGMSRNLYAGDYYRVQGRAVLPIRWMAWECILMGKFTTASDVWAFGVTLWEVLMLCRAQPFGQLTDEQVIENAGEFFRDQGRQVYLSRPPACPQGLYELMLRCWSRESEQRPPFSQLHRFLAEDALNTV
Myeloid differentiation primary response protein MyD88, sequence (Q99836 whole entry, the tested form may be a part): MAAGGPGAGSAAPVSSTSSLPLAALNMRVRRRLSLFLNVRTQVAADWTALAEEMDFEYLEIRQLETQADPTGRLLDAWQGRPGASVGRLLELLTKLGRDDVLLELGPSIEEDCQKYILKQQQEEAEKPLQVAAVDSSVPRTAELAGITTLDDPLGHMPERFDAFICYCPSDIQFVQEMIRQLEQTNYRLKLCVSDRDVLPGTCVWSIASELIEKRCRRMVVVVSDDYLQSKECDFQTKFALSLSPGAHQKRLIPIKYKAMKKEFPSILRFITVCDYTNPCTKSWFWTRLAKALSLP
Tyrosine-protein kinase JAK2, sequence (O60674 whole entry, the tested form may be a part): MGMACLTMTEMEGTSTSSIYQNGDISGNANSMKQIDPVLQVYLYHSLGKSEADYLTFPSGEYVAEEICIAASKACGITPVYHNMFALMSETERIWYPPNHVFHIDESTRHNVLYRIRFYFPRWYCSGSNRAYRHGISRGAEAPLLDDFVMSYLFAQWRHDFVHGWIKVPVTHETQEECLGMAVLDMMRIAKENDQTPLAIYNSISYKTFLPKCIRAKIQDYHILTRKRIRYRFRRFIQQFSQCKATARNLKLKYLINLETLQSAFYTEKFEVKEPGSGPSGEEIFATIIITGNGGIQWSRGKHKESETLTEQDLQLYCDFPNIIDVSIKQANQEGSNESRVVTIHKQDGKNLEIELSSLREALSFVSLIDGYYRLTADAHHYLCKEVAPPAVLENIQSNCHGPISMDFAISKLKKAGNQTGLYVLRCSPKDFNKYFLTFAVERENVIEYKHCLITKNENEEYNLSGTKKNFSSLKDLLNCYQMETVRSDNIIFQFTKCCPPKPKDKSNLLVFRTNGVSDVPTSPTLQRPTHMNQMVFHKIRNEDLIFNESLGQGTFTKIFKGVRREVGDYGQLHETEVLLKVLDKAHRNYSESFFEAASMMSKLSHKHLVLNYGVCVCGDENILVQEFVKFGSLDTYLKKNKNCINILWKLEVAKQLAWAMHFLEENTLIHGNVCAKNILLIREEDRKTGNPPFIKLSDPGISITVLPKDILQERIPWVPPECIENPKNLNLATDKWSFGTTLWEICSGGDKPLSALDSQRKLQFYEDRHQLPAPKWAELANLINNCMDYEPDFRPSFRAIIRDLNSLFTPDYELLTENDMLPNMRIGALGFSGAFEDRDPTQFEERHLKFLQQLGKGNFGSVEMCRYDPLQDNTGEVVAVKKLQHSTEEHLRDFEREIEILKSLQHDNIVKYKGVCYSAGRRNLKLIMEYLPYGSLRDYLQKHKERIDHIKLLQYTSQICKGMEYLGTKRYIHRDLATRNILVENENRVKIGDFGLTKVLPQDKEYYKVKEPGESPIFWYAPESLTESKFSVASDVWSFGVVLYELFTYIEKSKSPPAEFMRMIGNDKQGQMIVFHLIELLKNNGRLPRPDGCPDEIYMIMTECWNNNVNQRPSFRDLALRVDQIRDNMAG
Cannabinoid receptor 2, sequence (P34972 whole entry): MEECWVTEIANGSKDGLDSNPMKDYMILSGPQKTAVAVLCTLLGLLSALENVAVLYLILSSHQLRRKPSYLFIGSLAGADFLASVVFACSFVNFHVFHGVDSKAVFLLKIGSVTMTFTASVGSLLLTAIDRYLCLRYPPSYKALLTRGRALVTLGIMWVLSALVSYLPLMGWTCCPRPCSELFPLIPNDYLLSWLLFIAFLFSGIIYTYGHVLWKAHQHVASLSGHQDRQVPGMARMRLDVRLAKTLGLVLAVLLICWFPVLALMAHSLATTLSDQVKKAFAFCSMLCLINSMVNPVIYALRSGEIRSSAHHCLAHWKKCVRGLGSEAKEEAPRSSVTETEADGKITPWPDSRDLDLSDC
5-hydroxytryptamine receptor 2A, sequence (P28223 whole entry): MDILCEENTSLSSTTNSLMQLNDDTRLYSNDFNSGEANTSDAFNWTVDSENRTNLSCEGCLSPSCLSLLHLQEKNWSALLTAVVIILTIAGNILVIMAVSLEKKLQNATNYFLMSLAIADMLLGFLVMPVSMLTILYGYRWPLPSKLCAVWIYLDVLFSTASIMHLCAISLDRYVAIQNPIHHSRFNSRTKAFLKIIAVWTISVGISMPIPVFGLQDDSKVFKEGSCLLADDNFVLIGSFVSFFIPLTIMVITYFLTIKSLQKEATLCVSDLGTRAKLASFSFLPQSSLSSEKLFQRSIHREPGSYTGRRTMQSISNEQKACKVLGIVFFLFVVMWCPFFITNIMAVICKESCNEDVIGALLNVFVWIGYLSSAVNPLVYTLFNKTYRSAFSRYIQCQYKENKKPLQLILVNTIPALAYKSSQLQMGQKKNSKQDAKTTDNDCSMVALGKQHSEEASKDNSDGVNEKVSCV
Speckle-type POZ protein, sequence (O43791 whole entry): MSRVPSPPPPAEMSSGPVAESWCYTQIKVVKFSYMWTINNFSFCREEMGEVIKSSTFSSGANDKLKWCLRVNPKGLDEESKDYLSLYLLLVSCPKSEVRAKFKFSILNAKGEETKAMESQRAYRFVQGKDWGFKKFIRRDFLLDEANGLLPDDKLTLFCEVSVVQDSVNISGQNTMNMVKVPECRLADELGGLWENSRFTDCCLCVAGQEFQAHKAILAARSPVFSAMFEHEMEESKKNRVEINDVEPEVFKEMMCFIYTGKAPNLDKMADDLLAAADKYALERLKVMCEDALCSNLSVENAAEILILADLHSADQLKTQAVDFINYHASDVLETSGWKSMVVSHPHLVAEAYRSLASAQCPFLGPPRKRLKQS
Rho-associated protein kinase 1, sequence (Q13464 whole entry): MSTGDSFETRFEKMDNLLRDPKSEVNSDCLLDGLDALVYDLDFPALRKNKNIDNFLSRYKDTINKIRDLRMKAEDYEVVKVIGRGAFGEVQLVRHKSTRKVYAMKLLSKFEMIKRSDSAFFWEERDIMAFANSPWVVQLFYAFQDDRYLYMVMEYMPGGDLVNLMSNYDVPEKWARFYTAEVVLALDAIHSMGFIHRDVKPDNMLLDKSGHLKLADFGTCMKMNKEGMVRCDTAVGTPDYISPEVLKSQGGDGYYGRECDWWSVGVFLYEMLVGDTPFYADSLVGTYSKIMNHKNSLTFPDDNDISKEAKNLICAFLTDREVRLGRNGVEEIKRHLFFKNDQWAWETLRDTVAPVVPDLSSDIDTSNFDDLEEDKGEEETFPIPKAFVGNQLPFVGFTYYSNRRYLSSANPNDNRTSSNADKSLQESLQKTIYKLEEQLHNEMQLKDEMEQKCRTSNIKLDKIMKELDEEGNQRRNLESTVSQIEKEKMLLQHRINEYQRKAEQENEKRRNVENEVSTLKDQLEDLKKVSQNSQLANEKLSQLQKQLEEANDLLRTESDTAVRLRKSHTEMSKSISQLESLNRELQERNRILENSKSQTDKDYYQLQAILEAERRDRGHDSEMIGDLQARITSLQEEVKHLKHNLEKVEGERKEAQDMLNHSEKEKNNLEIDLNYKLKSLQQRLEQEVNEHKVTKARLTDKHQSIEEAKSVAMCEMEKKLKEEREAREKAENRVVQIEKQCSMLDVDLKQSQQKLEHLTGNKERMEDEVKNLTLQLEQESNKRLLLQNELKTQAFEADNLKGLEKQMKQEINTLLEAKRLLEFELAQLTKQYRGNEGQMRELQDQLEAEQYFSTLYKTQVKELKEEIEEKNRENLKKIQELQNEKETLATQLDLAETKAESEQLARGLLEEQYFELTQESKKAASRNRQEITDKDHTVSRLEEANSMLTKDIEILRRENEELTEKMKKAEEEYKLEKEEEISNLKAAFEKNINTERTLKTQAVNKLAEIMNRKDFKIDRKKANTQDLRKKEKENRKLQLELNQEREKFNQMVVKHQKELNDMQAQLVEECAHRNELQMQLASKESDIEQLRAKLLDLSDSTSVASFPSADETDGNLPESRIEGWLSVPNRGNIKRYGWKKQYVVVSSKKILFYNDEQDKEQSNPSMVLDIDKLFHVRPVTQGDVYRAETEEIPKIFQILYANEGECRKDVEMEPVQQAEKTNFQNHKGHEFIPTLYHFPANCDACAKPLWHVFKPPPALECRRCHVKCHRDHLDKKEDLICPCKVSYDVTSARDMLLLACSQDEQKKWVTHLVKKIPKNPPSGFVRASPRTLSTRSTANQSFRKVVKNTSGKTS
Description for Acinetobacter baumannii: Antibacterial activity against Acinetobacter baumannii ATCC 17978

For the compound `COCC(C)(NC(=O)c1ccc(N2CCCCC2)c(S(=O)(=O)N2CCCCC2)c1)C1CC1` (configuration not stated), on Cannabinoid receptor 2, the negative logarithm of the Ki (pKi) (commonly the Ki on a negative log10 scale, so that one unit is a factor of ten) is 9.05.

On to `O=C(NCc1cccc2ccccc12)NCC(O)(c1cccs1)c1cccs1`, for which, on Androgen receptor, the pIC50 (commonly the IC50 on a negative log10 scale, so that one unit is a factor of ten) was 5.70.

Take `O=C(N/N=C/c1ccc([N+](=O)[O-])o1)c1ccc(O)cc1` [NIFUROXAZIDE]: the pIC50 in the experiment with VCaP is 5.59.

As for `CC1(C)[C@H]2Cc3cc(-c4cc5c(cn4)[C@@H]4C[C@H](C5)C4(C)C)ncc3[C@@H]1C2`, the MIC in the experiment with Staphylococcus aureus [1] and in the experiment on Staphylococcus aureus [2] was 8 µg/mL (≈ 23.2 µM) throughout.

As to `CC(O)(CNC(=O)/C=C/c1ccnc2ccccc12)c1ccsc1` (configuration not stated), the negative logarithm of the IC50 (pIC50) at Androgen receptor is 5.30.

With `C[C@@H]1C=C(c2c[nH]c3ncccc23)CN(C)C1`, the negative logarithm of the EC50 (pEC50) – broadly, the EC50 on a negative log10 scale, so that one unit is a factor of ten – in [3] was 6.96.

As to `O=C(NCc1coc(-c2ccccc2)n1)Nc1ccc(-c2noc(C(F)(F)F)n2)cc1`, the pIC50 in [4] was 4.40.

On Speckle-type POZ protein, `Cc1nnc(SCC2=C(C(=O)O)N3C(=O)[C@@H](NC(=O)c4ccc(COc5ccccc5Cl)o4)[C@H]3SC2)s1` gave a pIC50 of 5.35.

`Nc1nnc(Sc2ncc([N+](=O)[O-])s2)s1` yielded an MIC against Escherichia coli of 2 µg/mL (≈ 7.65 µM).

Regarding `COCc1cccc(CC(=O)Nc2ccc(-c3cn[nH]c3)cc2)c1`, the pIC50 in [5] is 7.15; in experiment [6], 8.00; with MOLT-4, 6.94. In addition, the pKi in experiment [7] is 7.42.

In turn, `O=C1Nc2ccccc2C2(CCN(CCc3ccc(C(F)(F)F)cc3)CC2)O1` yielded an MIC against Acinetobacter baumannii of 2 µg/mL (≈ 5.12 µM).

For `O=C(CN1CCC(CCc2ccccc2)CC1)Nc1n[nH]c2ncccc12`, in experiment [8], the negative logarithm of the Kd (pKd) – broadly, the Kd on a negative log10 scale, so that one unit is a factor of ten – was 3.78.

With `COc1ccc(/C=C/c2[nH]c(=O)[nH]c(=O)c2[N+](=O)[O-])cc1OC`, in experiment [9], the negative logarithm of the IC50 (pIC50) was 3.75.
